The text below walks through data of ChEMBL document CHEMBL1131702, “Synthesis and biological activity of KCB-328 and its analogues: novel class III antiarrhythmic agents with little reverse frequency dependence” (1999).

The species named for assay [1] is Cavia porcellus. Put plainly: Effective refractory period of contractile response in isolated guinea-pig papillary muscles at 1 Hz and 1 uM. It counts as functional, Muscle tissue.
The species entered for assay [2] is Cavia porcellus. In words: Effective refractory period of contractile response in isolated guinea-pig papillary muscles at 3 Hz and 1 uM. It counts as functional, Muscle tissue.
The nature of assay [3]: Ratio of ERPc prolongation was measured as percent change at 3 Hz/1 Hz. Type of assay: functional.
Assay [4] is filed under the species Cavia porcellus. Put plainly: Effect of 1 uM of compound, on action potential duration (APD) was determined in isolated guinea-pig papillary muscles at 1 Hz. It counts as functional, Muscle tissue.
Assay [5] is filed under the species Cavia porcellus. Put plainly: Effect of 1 uM of compound, on action potential duration (APD) was determined in isolated guinea-pig papillary muscles at 3 Hz. It counts as functional, Muscle tissue.
Assay [6] in a line: Ratio of APD prolongation was measured as percent change at 3 Hz/1 Hz. Type of assay: functional.

As for `COc1cc(N)c(CCN(C)CCOc2ccc(NS(C)(=O)=O)cc2Cl)cc1OC`, the “Delta ERPc” value was 27.5% in the assay filed under Cavia porcellus [1] and 34.7% in the assay listed under Cavia porcellus [2]. The Ratio in assay [3] turned out to be 126.
The like results for `Cc1cccc(CCN2CCC(C(=O)c3ccc(NS(C)(=O)=O)cc3)CC2)n1` were, in that order, 41.8%, 30.2% and 71.
The like results for `COc1ccc(CCN(C)CCOc2ccc(NS(C)(=O)=O)cc2Cl)cc1OC` were, in that order, 32.2%, 30.8% and 95.
In the same order, the values of `COc1ccc(CCN(C)CCOc2ccc(NS(C)(=O)=O)cc2I)cc1OC` are 28.9%, 21.2% and 73.
With `COc1cc(C)c(CCN(C)CCOc2ccc(NS(C)(=O)=O)cc2-n2cccc2)cc1OC`, the entries for the “Delta ERPc” value in the assay filed under Cavia porcellus [1] and in the assay filed under Cavia porcellus [2] were 32.1% and 26.3%, respectively. For the same compound, in assay [3], the Ratio stood at 81.
In the same order, the values of `COc1ccc(CCN(C)CCOc2ccc(NS(C)(=O)=O)cc2C)cc1OC` are 28.9%, 27.2% and 94.
In the same order, the values of `COc1ccc(CCN(C)CCOc2ccc(NS(C)(=O)=O)cc2[N+](=O)[O-])cc1OC` are 33.3%, 25% and 75.
In the same order, the values of `COc1cc(N)c(CCN(C)CCOc2ccc(NS(C)(=O)=O)cc2-n2cccc2)cc1OC` are 39.4%, 24.7% and 62.
`COc1ccc(CCN(C)CCOc2ccc(NS(C)(=O)=O)cc2OCc2ccccc2)cc1OC`: the “Delta ERPc” value in the assay listed under Cavia porcellus [1] is given as 26.3%; in the assay listed under Cavia porcellus [2], 30%. Also, the Ratio in assay [3] worked out at 114.
The like results for `COc1ccc(CCN(C)CCOc2ccc(NS(C)(=O)=O)cc2Br)cc1OC` were, in that order, 32.8%, 25.2% and 76.
`COc1cc(C)c(CCN(C)CCOc2ccc(NS(C)(=O)=O)cc2Cl)cc1OC`: the “Delta APD90” value is listed as 37.8% in the assay listed under Cavia porcellus [4] and 22.2% in the assay listed under Cavia porcellus [5]. Further, the “Delta ERPc” value in the assay listed under Cavia porcellus [1] turned out to be 28%; in the assay filed under Cavia porcellus [2], 33.1%. Also, the Ratio in assay [6] turned out to be 82; in assay [3], 118.
For the compound `COc1cc(CCN(C)CCOc2ccc(NS(C)(=O)=O)cc2Cl)c([N+](=O)[O-])cc1OC`, the “Delta ERPc” value in the assay listed under Cavia porcellus [1] came to 29.4%; in the assay filed under Cavia porcellus [2], 36.2%. In assay [3], the Ratio came to 123.
In the case of `COc1ccc(CCN(C)CCOc2ccc(NS(C)(=O)=O)cc2-n2cccc2)cc1OC`, the “Delta APD90” value in the assay listed under Cavia porcellus [4] is on record as 26.4%; in the assay listed under Cavia porcellus [5], 26.2%. Moreover, the “Delta ERPc” value in the assay filed under Cavia porcellus [1] came to 31.2%; in the assay listed under Cavia porcellus [2] it was 40.1%. Also, the values for the Ratio in assay [6] and in assay [3] were 99 and 128, respectively.
Regarding `COc1cc(Cl)c(CCN(C)CCOc2ccc(NS(C)(=O)=O)cc2Cl)cc1OC`, the “Delta ERPc” value was found to be 22.4% in the assay listed under Cavia porcellus [1] and 17.8% in the assay filed under Cavia porcellus [2]. In assay [3], the Ratio was determined as 79.
The like results for `COc1ccc(CCN(C)CCOc2ccc(NS(C)(=O)=O)cc2)cc1OC` were, in that order, 60.1%, 28.9% and 48.
The like results for `COc1ccc(CCN(C)CCOc2ccc(NS(C)(=O)=O)cc2F)cc1OC` were, in that order, 34.5%, 25.9% and 75.
With `COc1ccc(CCN(C)CCOc2ccc(NS(C)(=O)=O)cc2N)cc1OC`, the “Delta APD90” value in the assay filed under Cavia porcellus [4] is on record as 33.3%; in the assay filed under Cavia porcellus [5] it was 28.6%. The “Delta ERPc” value in the assay listed under Cavia porcellus [1] was found to be 31%; in the assay filed under Cavia porcellus [2], 32.6%. For the same compound, the Ratio in assay [6] was found to be 86; in assay [3] it was 105.
On to `CN(CCOc1ccc(NS(C)(=O)=O)cc1)CCc1ccc(NS(C)(=O)=O)cc1` [DOFETILIDE], for which the “Delta APD90” value in the assay filed under Cavia porcellus [4] is given as 45.6%; in the assay listed under Cavia porcellus [5] it was 26.8%. Moreover, the entries for the “Delta ERPc” value in the assay filed under Cavia porcellus [1] and in the assay filed under Cavia porcellus [2] were 49.9% and 30.8%, respectively. Moreover, the figures for the Ratio in assay [6] and in assay [3] were 59 and 65, respectively.
As for `COc1ccc(CCN(C)CCOc2ccc(NS(C)(=O)=O)cc2NC(C)=O)cc1OC`, the “Delta ERPc” value in the assay listed under Cavia porcellus [1] stood at 39.3%; in the assay listed under Cavia porcellus [2] it was 27.7%. In assay [3], the Ratio was found to be 70.
The like results for `COc1ccc(CCN(C)CCOc2ccc(NS(C)(=O)=O)cc2Nc2nccs2)cc1OC` were, in that order, 43.4%, 36.8% and 84.
